PubChem BioAssay (NCI)
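A five-concentration, 48-hour dose response in 96-well plates underlies each endpoint, interpolated linearly between surrounding concentrations. At the TGI there is no net growth.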 Where a SMILES comes first, the peptide text is derived from it. The star is where a group is joined. Boc = CC(C)(C)OC(=O)*; OBn = c1ccc(CO*)cc1

How the values were obtained:
Assay in all cases: growth of human tumour cells (NCI), 48 h
MOLT-4 leukemia = tested on: MOLT-4 leukemia
COLO 205 colon = tested on: COLO 205 colon
HCC-2998 colon = tested on: HCC-2998 colon
HT29 colon = tested on: HT29 colon
RXF 393 renal = tested on: RXF 393 renal
RPMI-8226 leukemia = tested on: RPMI-8226 leukemia
MCF7 breast = tested on: MCF7 breast
OVCAR-5 ovarian = tested on: OVCAR-5 ovarian
EKVX NSCLC = tested on: EKVX NSCLC
T-47D breast = tested on: T-47D breast
SNB-19 CNS = tested on: SNB-19 CNS
DU-145 prostate = tested on: DU-145 prostate
HCT-116 colon = tested on: HCT-116 colon
K-562 leukemia = tested on: K-562 leukemia
NCI-H522 lung = tested on: NCI-H522 lung
SK-MEL-5 melanoma = tested on: SK-MEL-5 melanoma
ACHN renal = tested on: ACHN renal
SF-539 CNS = tested on: SF-539 CNS

Compound	TGI (MOLT-4 leukemia)	TGI (COLO 205 colon)	TGI (HCC-2998 colon)	TGI (HT29 colon)	TGI (RXF 393 renal)	TGI (RPMI-8226 leukemia)	TGI (MCF7 breast)	TGI (OVCAR-5 ovarian)	TGI (EKVX NSCLC)	TGI (T-47D breast)	TGI (SNB-19 CNS)	TGI (DU-145 prostate)	TGI (HCT-116 colon)	TGI (K-562 leukemia)	TGI (NCI-H522 lung)	TGI (SK-MEL-5 melanoma)	TGI (ACHN renal)	TGI (SF-539 CNS)
CC1(C)OC(=O)C2(O1)C(=O)C1CCCCC12 (stereo not given)	> 100 µM	> 100 µM	> 100 µM	> 100 µM	> 100 µM	> 100 µM	> 100 µM	> 100 µM	> 100 µM	> 100 µM	> 100 µM	> 100 µM	> 100 µM	> 100 µM	> 100 µM	> 100 µM	> 100 µM	–
CCOC(=O)Nc1nn(C)c(=NCc2ccccc2)s1	> 100 µM	> 100 µM	–	–	> 100 µM	> 100 µM	> 100 µM	> 100 µM	> 100 µM	> 100 µM	> 100 µM	> 100 µM	> 100 µM	> 100 µM	> 100 µM	> 100 µM	> 100 µM	> 100 µM
CC(C)/C(Cl)=N\OC(=O)Nc1ccc(F)cc1F	3.99 µM	3.52 µM	34 µM	15.8 µM	12.6 µM	75.2 µM	13.4 µM	33.5 µM	13.8 µM	47.3 µM	34.8 µM	31.7 µM	15.7 µM	> 100 µM	–	27.4 µM	8.53 µM	30.6 µM
CCCCOCCOC1=CC(=O)c2c(O)ccc(O)c2C1=O	9.38 µM	2.36 µM	3.3 µM	3.12 µM	3.02 µM	> 10 µM	3.15 µM	–	3.08 µM	4.03 µM	3.12 µM	3.17 µM	2.85 µM	> 10 µM	2.93 µM	0.422 µM	3.1 µM	2.94 µM
C/C(CC1SCCCS1)=C(/C)CC1SCCCS1	> 100 µM	> 100 µM	> 100 µM	> 100 µM	> 100 µM	> 100 µM	> 100 µM	> 100 µM	> 100 µM	> 100 µM	> 100 µM	> 100 µM	> 100 µM	> 100 µM	–	> 100 µM	> 100 µM	> 100 µM
CC(C)(C)[Si](C)(C)OCCOCn1cc(F)c(=O)[nH]c1=O	> 100 µM	> 100 µM	–	> 100 µM	> 100 µM	> 100 µM	> 100 µM	> 100 µM	> 100 µM	> 100 µM	> 100 µM	> 100 µM	> 100 µM	> 100 µM	> 100 µM	> 100 µM	> 100 µM	> 100 µM
C[n+]1cccc2ccc(OC(=O)c3ccccc3)cc21	> 100 µM	> 100 µM	–	> 100 µM	> 100 µM	> 100 µM	> 100 µM	> 100 µM	> 100 µM	> 100 µM	> 100 µM	> 100 µM	> 100 µM	> 100 µM	> 100 µM	> 100 µM	> 100 µM	> 100 µM
O=c1oc(-c2ccccc2)c(-c2ccccc2)n1-c1ccc(Br)cc1	> 100 µM	> 100 µM	–	> 100 µM	> 100 µM	–	> 100 µM	> 100 µM	> 100 µM	> 100 µM	> 100 µM	89.4 µM	> 100 µM	–	62.7 µM	> 100 µM	> 100 µM	53.8 µM
O=C(Cc1ccccc1)NCCCN(CCCCN(CCCNC(=O)Cc1ccccc1)C(=O)OCc1ccccc1)C(=O)OCc1ccccc1	> 100 µM	> 100 µM	> 100 µM	> 100 µM	> 100 µM	> 100 µM	> 100 µM	> 100 µM	> 100 µM	> 100 µM	–	> 100 µM	> 100 µM	> 100 µM	12.2 µM	> 100 µM	> 100 µM	> 100 µM
CCCCCC[C@H]1C(=O)O[C@H](C)[C@H](NC(=O)c2cccc(NC=O)c2OC)C(=O)O[C@@H](C)[C@@H]1OC(=O)CC(C)C (tested in a mixture with another compound)	> 100 µM	34.7 µM	> 100 µM	> 100 µM	> 100 µM	> 100 µM	78.3 µM	> 100 µM	> 100 µM	> 100 µM	–	> 100 µM	50.3 µM	> 100 µM	> 100 µM	38.7 µM	49.2 µM	78.3 µM
COc1ccc(C(=O)/C=C/c2cccnc2)cc1OC	14.1 µM	22.9 µM	–	15.2 µM	18.6 µM	–	13 µM	24.6 µM	28.7 µM	22 µM	27.6 µM	27.8 µM	16.3 µM	43.8 µM	3.5 µM	27.4 µM	26.7 µM	6.4 µM
Nc1nc(N)c2[nH]cnc2n1 (tested in a mixture with another compound)	> 100 µM	> 100 µM	–	> 100 µM	80.6 µM	> 100 µM	21.7 µM	> 100 µM	60.1 µM	40 µM	> 100 µM	> 100 µM	41.8 µM	> 100 µM	54.2 µM	85.3 µM	48.6 µM	> 100 µM
COC(=O)C1=C(C)NC(C)=C(C(=O)OC)C1c1cccc(NO)c1	–	30.3 µM	> 100 µM	32.4 µM	27.1 µM	> 100 µM	38.5 µM	30.1 µM	70.9 µM	55.4 µM	> 100 µM	> 100 µM	26.4 µM	> 100 µM	20.8 µM	29.4 µM	26.8 µM	32.6 µM
CN(CCCN(C)CCc1ccc(Cl)c(Cl)c1)CCCN1CCCC1	12.4 µM	6.84 µM	0.82 µM	2.58 µM	4.58 µM	2.19 µM	3.69 µM	15.1 µM	13.7 µM	5.94 µM	13.7 µM	21.4 µM	4.11 µM	1.3 µM	3.51 µM	–	19.2 µM	–
C/C(=N\NC(=S)NC(C)(C)C)c1ccccn1	–	> 100 µM	> 100 µM	> 76.6 µM	23.2 µM	3.72 µM	> 100 µM	–	> 100 µM	34.9 µM	> 100 µM	> 100 µM	> 100 µM	–	> 23.1 µM	> 40 µM	–	18.1 µM
O=C(CCCN1CCC2(CC1)CC(=O)N(N1CCCCCC1)C2=O)c1ccc(F)cc1	> 100 µM	> 100 µM	–	33.8 µM	97.9 µM	> 100 µM	> 100 µM	> 100 µM	> 100 µM	> 100 µM	–	> 100 µM	> 100 µM	> 100 µM	> 100 µM	> 100 µM	> 100 µM	> 100 µM
COC(=O)C1(Cc2ccc3c(c2)CCC3)Cc2ccc3c(c2C1)CCC3 (stereo not given)	> 100 µM	39.2 µM	> 100 µM	33.9 µM	83.3 µM	46.9 µM	31.4 µM	–	> 100 µM	27.1 µM	–	> 100 µM	54.8 µM	> 100 µM	45.1 µM	40.2 µM	73.2 µM	> 100 µM
Oc1ccc(/C=C/c2ccc3cccc(O)c3n2)cc1O	21.5 µM	29.6 µM	26.9 µM	37.7 µM	7.4 µM	78 µM	93.7 µM	46.3 µM	30.8 µM	6.52 µM	20.9 µM	12.3 µM	14.5 µM	> 100 µM	–	13.4 µM	20.7 µM	9.46 µM
CC(NC(=O)C(Cc1ccccc1)NC(=O)C(Cc1ccccc1)NC(=O)OC(C)(C)C)C(=O)OCc1ccccc1 (stereo not drawn) (Boc-Phe-Phe-Ala-OBn; configuration not given here)	> 100 µM	> 100 µM	> 100 µM	> 100 µM	> 100 µM	> 100 µM	> 100 µM	> 100 µM	> 100 µM	> 100 µM	–	> 100 µM	> 100 µM	> 100 µM	> 100 µM	> 100 µM	–	> 100 µM
CC(C)(CO)NC(=O)Nc1c(C(F)(F)F)cc(-c2ccccc2)[nH]c1=O	> 100 µM	> 100 µM	> 100 µM	> 100 µM	> 100 µM	–	> 100 µM	> 100 µM	> 100 µM	> 100 µM	> 100 µM	> 100 µM	> 100 µM	> 100 µM	> 100 µM	> 100 µM	> 100 µM	–
C=C1C(=O)O[C@H]2[C@H]3O[C@@H](C[C@@H]12)[C@@]1(C)CC[C@H](O1)C(C)=CCC[C@H]3C	–	3.47 µM	3.25 µM	3.33 µM	3.75 µM	2.46 µM	3.63 µM	11.5 µM	3.32 µM	6.3 µM	19 µM	2.86 µM	4.29 µM	3.09 µM	3.42 µM	2.81 µM	2.88 µM	3.07 µM
CC(=O)N1N(c2ccc([N+](=O)[O-])cc2)C(=O)C1(C)C	43.4 µM	30.5 µM	29.7 µM	44.8 µM	32.3 µM	–	42.5 µM	44.3 µM	34.5 µM	> 100 µM	> 100 µM	> 100 µM	–	60.5 µM	27.2 µM	30.8 µM	41.5 µM	49.7 µM
O=c1oc2c(ccc3ccccc32)cc1C1=CSC2=NCCN12	> 100 µM	> 100 µM	38.7 µM	> 100 µM	> 100 µM	> 100 µM	67.8 µM	–	> 100 µM	> 100 µM	> 100 µM	75.1 µM	> 100 µM	> 100 µM	> 100 µM	> 100 µM	> 100 µM	> 100 µM
CC1=N[C@](C)(C2CC3C=CC2C3=O)COC1=O (stereo not given in full)	> 100 µM	> 100 µM	> 100 µM	> 100 µM	> 100 µM	–	> 100 µM	> 100 µM	> 100 µM	> 100 µM	> 100 µM	> 100 µM	> 100 µM	> 100 µM	> 100 µM	> 100 µM	> 100 µM	> 100 µM
Cc1ccc(S(=O)(=O)n2c3c(c4ccccc42)CCN2CCC(Br)C[C@@H]32)cc1 (stereo not given in full)	25.8 µM	30.2 µM	28.4 µM	26.3 µM	26.1 µM	24.4 µM	22.8 µM	31.9 µM	38.1 µM	21.8 µM	28.7 µM	29.1 µM	–	18.6 µM	18.6 µM	20.2 µM	34.8 µM	31.5 µM
COC(=O)C1CCC(=O)N1C(c1ccccc1)c1cc(OC)c(OC)c(OC)c1 (stereo not given)	89.3 µM	> 100 µM	> 100 µM	> 100 µM	> 100 µM	–	> 100 µM	> 100 µM	> 100 µM	> 100 µM	> 100 µM	> 100 µM	> 100 µM	49.9 µM	> 100 µM	–	> 100 µM	> 100 µM
c1ccc(C2OCC(OC3CCCCO3)CO2)cc1 (stereo not given)	68.2 µM	> 100 µM	> 100 µM	> 100 µM	–	> 100 µM	> 100 µM	> 100 µM	> 100 µM	> 100 µM	> 100 µM	> 100 µM	> 100 µM	> 100 µM	> 100 µM	> 100 µM	> 100 µM	> 100 µM
